Test results from patent publication US6627581B1, “Cyclopropyl-anellated 3-(4,5-dihydroisoxazol-3-yl)-substituted benzoylpyrazoles” (BASF Aktiengesellschaft, priority 1999, dated 2003).

Key:
Amaranthus retroflexus = test: greenhouse post-emergence herbicidal test; assay type: in vivo; settings: Amaranthus retroflexus (pig weed), application rates of 0.25 or 0.125 kg/ha, 2 to 4 weeks
From the text: (§1) The cultivation containers used were plastic pots containing loamy sand with approximately 3.0% of humus as the substrate. The seeds of the test plants were sown separately for each species.
(§2) For the post-emergence treatment, the test plants were first grown to a height of from 3 to 15 cm, depending on the plant habit, and only then treated with the active compounds which had been suspended or emulsified in water. The test plants were for this purpose either sown directly and grown in the same containers, or they were first grown separately as seedlings and transplanted into the test containers a few days prior to treatment. The application rate for the post-emergence treatment was 0.25 or 0.125 kg of a.s. (active substance)/ha.
(§3) Depending on the species, the plants were kept at 10-25° C. or 20-35° C. The test period extended over from 2 to 4 weeks. During this time, the plants were tended, and their response to the individual treatments was evaluated.
(§4) The evaluation was carried out using a scale from 0 to 100. 100 means no emergence of the plants, or complete destruction of at least the aerial parts and 0 means no damage, or normal course of growth.
(§5) The plants used in the greenhouse experiments were of the following species: […]

Setaria faberi = test: greenhouse post-emergence herbicidal test; assay type: in vivo; settings: Setaria faberi (giant foxtail), application rates of 0.25 or 0.125 kg/ha, 2 to 4 weeks
From the text: as §1, §2, §3, §4, §5

Polygonum persicaria = test: greenhouse post-emergence herbicidal test; assay type: in vivo; settings: Polygonum persicaria (ladysthumb), application rates of 0.25 or 0.125 kg/ha, 2 to 4 weeks
From the text: as §1, §2, §3, §4, §5

Echinochloa crus galli = test: greenhouse post-emergence herbicidal test; assay type: in vivo; settings: Echinochloa crus galli (barnyardgrass), application rates of 0.25 or 0.125 kg/ha, 2 to 4 weeks
From the text: as §1, §2, §3, §4, §5

Avena fatua = test: greenhouse post-emergence herbicidal test; assay type: in vivo; settings: Avena fatua (wild oat), application rates of 0.25 or 0.125 kg/ha, 2 to 4 weeks
From the text: as §1, §2, §3, §4, §5

Chenopodium album = test: greenhouse post-emergence herbicidal test; assay type: in vivo; settings: Chenopodium album (lambsquaters), application rates of 0.25 or 0.125 kg/ha, 2 to 4 weeks
From the text: as §1, §2, §3, §4, §5

Row | SMILES | melting point | further results
1 | Cc1nn(C)c(O)c1C(=O)c1ccc(S(C)(=O)=O)c(C2=NOC3CC23)c1C (centres unmarked) [Compound 2.5] | 89 to 91 °C | post-emergence action (Amaranthus retroflexus): very good; post-emergence action (Setaria faberi): very good; post-emergence action (Polygonum persicaria): very good; post-emergence action (Echinochloa crus galli): very good; post-emergence action (Avena fatua): very good; post-emergence action (Chenopodium album): very good
2 | Cc1c(C(=O)c2cnn(C)c2O)ccc(S(C)(=O)=O)c1C1=NOC2(C)CC12 (centres unmarked) [Compound 2.7] | 98 to 102 °C | –
3 | Cc1c(C(=O)c2cnn(C(C)C)c2O)ccc(S(C)(=O)=O)c1C1=NOC2(C)CC12 (centres unmarked) [Compound 2.11] | 67 to 70 °C | –
4 | Cc1c(C(=O)c2cnn(C)c2O)ccc(S(C)(=O)=O)c1C1=NOC2CC12C (centres unmarked) [Compound 2.13] | 99 to 103 °C | –
5 | Cc1c(C(=O)c2cnn(C(C)C)c2O)ccc(S(C)(=O)=O)c1C1=NOC2CC12C (centres unmarked) [Compound 2.14] | 75 to 80 °C | –
6 | Cc1c(C(=O)c2cnn(C(C)(C)C)c2O)ccc(S(C)(=O)=O)c1C1=NOC2CC12C (centres unmarked) [Compound 2.16] | 110 to 115 °C | –

More lines, main results first:

Row | melting point | SMILES | further results
7 | 69 to 74 °C | Cc1c(C(=O)c2cnn(C(C)(C)C)c2O)ccc(S(C)(=O)=O)c1C1=NOC2CC12 (centres unmarked) [Compound 2.1, 4-[2-Methyl-3-(2-oxa-3-aza-bicyclo[3.1.0]hex-3-en-4-yl)-4-methylsulfonylbenzoyl]-5-hydroxy-1-tert-butyl-1H-pyrazole] | –
8 | 94 to 97 °C | CCn1ncc(C(=O)c2ccc(S(C)(=O)=O)c(C3=NOC4CC34)c2C)c1O (centres unmarked) [Compound 2.2] | –
9 | 106 to 112 °C | Cc1c(C(=O)c2cnn(C)c2O)ccc(S(C)(=O)=O)c1C1=NOC2CC12 (centres unmarked) [Compound 2.3, 4-[2-Methyl-3-(2-oxa-3-azabicyclo[3.1.0]hex-3-en-4-yl)-4-methyl-sulfonylbenzoyl]-5-hydroxy-1-methyl-1H-pyrazole] | –
10 | 90 to 95 °C | Cc1c(C(=O)c2cnn(C(C)C)c2O)ccc(S(C)(=O)=O)c1C1=NOC2CC12 (centres unmarked) [Compound 2.4] | –
11 | 90 to 95 °C | Cc1c(C(=O)c2cnn(C(C)(C)C)c2O)ccc(S(C)(=O)=O)c1C1=NOC2(C)CC12 (centres unmarked) [Compound 2.10] | –
